Experimental findings from the supplement of paper PMC6045584 are described below.

± gives the standard deviation of the averaged measurements.

Compound in one assay: CC/C(=C(\c1ccc(O)cc1)c1ccc(OCCN(C)C)cc1)c1ccccc1 [AFIMOXIFENE]
Kind of assay: surviving fraction relative to DMSO-only wells; higher = less growth inhibition. The settings on record: exposure time: 5 days. In short, it runs like this:
(§1)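 A line counted only if its three screens reached replicate Pearson r >0.7 and median Z' >0.3. Tumour cells in log phase were seeded at 250–500 per well in 384-well plates and, after 24 hours, kept in continuous contact with inhibitors at 0.5, 1, 5, 10, 50, 100, 500 and 1000 nM for five days. Surviving fraction was taken from CellTiter-Glo luminescence relative to the median of DMSO-only wells.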

Compound in assay [1]: C[C@@H]1CN(CC(=O)Nc2ccc3c(c2)Cc2cccc(-c4cc(=O)cc(N5CCOCC5)o4)c2S3)C[C@H](C)O1
The assay is described as above. To be noted: exposure time: 5 days. In short, it runs like this: as §1

Consider HCC1806 BREAST, for which the surviving fraction stood at 1.04 ± 0.065 with AFIMOXIFENE (0.5 nM); 1.1 ± 0.077 with AFIMOXIFENE (1 nM); 1.16 ± 0.12 with AFIMOXIFENE (5 nM); 1.14 ± 0.048 in the assay with AFIMOXIFENE (10 nM); 1.15 ± 0.026 with AFIMOXIFENE (50 nM); 1.13 ± 0.072 with AFIMOXIFENE (100 nM). Besides, the surviving fraction in the assay with AFIMOXIFENE (500 nM) came to 0.965 ± 0.028; in the assay with AFIMOXIFENE (1000 nM) it was 0.682 ± 0.064; in assay [1] (0.5 nM), 1.05 ± 0.14; in assay [1] (1 nM), 1.07 ± 0.086; in assay [1] (5 nM), 1.12 ± 0.08; in assay [1] (10 nM), 1.1 ± 0.035. Also, the surviving fraction in assay [1] (50 nM) is 0.959 ± 0.067; in assay [1] (100 nM), 0.949 ± 0.12; in assay [1] (500 nM), 0.699 ± 0.065; in assay [1] (1000 nM) it was 0.477 ± 0.024.
As to HSSYII SYNOVIAL, the surviving fraction in the assay with AFIMOXIFENE (0.5 nM) came to 0.993 ± 0.029; in the assay with AFIMOXIFENE (1 nM) it was 1.04 ± 0.021; with AFIMOXIFENE (5 nM) it was 0.989 ± 0.075; in the assay with AFIMOXIFENE (10 nM), 1.02 ± 0.055; with AFIMOXIFENE (50 nM), 1.01 ± 0.035; with AFIMOXIFENE (100 nM) it was 0.993 ± 0.046. Further, the surviving fraction with AFIMOXIFENE (500 nM) was found to be 0.921 ± 0.07; with AFIMOXIFENE (1000 nM), 0.968 ± 0.05; in assay [1] (0.5 nM) it was 0.975 ± 0.027; in assay [1] (1 nM) it was 0.956 ± 0.032; in assay [1] (5 nM) it was 0.931 ± 0.015; in assay [1] (10 nM), 0.99 ± 0.041. Besides, the surviving fraction in assay [1] (50 nM) amounted to 0.891 ± 0.011; in assay [1] (100 nM) it was 0.867 ± 0.043; in assay [1] (500 nM) it was 0.84 ± 0.055; in assay [1] (1000 nM), 0.74 ± 0.041.
With MFM223 BREAST, the surviving fraction with AFIMOXIFENE (0.5 nM) turned out to be 1.28 ± 0.067; with AFIMOXIFENE (1 nM), 1.21 ± 0.043; in the assay with AFIMOXIFENE (5 nM), 1.19 ± 0.084; with AFIMOXIFENE (10 nM), 1.22 ± 0.13; with AFIMOXIFENE (50 nM), 1.2 ± 0.043; with AFIMOXIFENE (500 nM), 1.1 ± 0.062. For the same test system, the surviving fraction in the assay with AFIMOXIFENE (1000 nM) worked out at 0.932 ± 0.043; in assay [1] (0.5 nM), 1.17 ± 0.17; in assay [1] (1 nM), 1.2 ± 0.037; in assay [1] (5 nM) it was 1.17 ± 0.052; in assay [1] (10 nM), 1.19 ± 0.02; in assay [1] (50 nM), 0.935 ± 0.1. Moreover, the surviving fraction in assay [1] (100 nM) is 0.869 ± 0.12; in assay [1] (500 nM), 0.885 ± 0.035; in assay [1] (1000 nM) it was 0.794 ± 0.1.
Regarding MDAMB468 BREAST, the surviving fraction in the assay with AFIMOXIFENE (0.5 nM) is 1.01 ± 0.021; with AFIMOXIFENE (1 nM), 0.991 ± 0.034; in the assay with AFIMOXIFENE (5 nM) it was 1.06 ± 0.054; in the assay with AFIMOXIFENE (10 nM), 1.09 ± 0.02; with AFIMOXIFENE (50 nM) it was 1.12 ± 0.077; with AFIMOXIFENE (100 nM), 1.21 ± 0.046. Besides, the surviving fraction with AFIMOXIFENE (500 nM) is 1.14 ± 0.024; with AFIMOXIFENE (1000 nM) it was 1.05 ± 0.0095; in assay [1] (0.5 nM), 0.975 ± 0.015; in assay [1] (1 nM) it was 0.921 ± 0.024; in assay [1] (5 nM), 0.951 ± 0.026; in assay [1] (10 nM) it was 1 ± 0.025. The surviving fraction stood at 0.935 ± 0.018 in assay [1] (50 nM), 1 ± 0.091 in assay [1] (100 nM), 0.824 ± 0.12 in assay [1] (500 nM) and 0.756 ± 0.076 in assay [1] (1000 nM).
As to HCC78 LUNG, the surviving fraction with AFIMOXIFENE (0.5 nM) was found to be 0.893 ± 0.16; with AFIMOXIFENE (1 nM), 0.908 ± 0.17; with AFIMOXIFENE (5 nM), 0.902 ± 0.39; in the assay with AFIMOXIFENE (10 nM) it was 1.05 ± 0.19; with AFIMOXIFENE (100 nM), 1.13 ± 0.077; with AFIMOXIFENE (500 nM), 1.29 ± 0.2. Besides, the surviving fraction with AFIMOXIFENE (1000 nM) was 1.08 ± 0.094; in assay [1] (0.5 nM), 1.13 ± 0.16; in assay [1] (1 nM), 0.941 ± 0.26; in assay [1] (5 nM), 1.07 ± 0.11; in assay [1] (10 nM) it was 1.21 ± 0.21; in assay [1] (50 nM) it was 1.15 ± 0.17. Further, the surviving fraction in assay [1] (100 nM) stood at 1.41 ± 0.29; in assay [1] (500 nM) it was 1.27 ± 0.39; in assay [1] (1000 nM), 1.29 ± 0.013.
With NCIH441 LUNG, the surviving fraction with AFIMOXIFENE (0.5 nM) stood at 1.06 ± 0.11; in the assay with AFIMOXIFENE (1 nM), 1.07 ± 0.12; with AFIMOXIFENE (5 nM), 1.04 ± 0.11; with AFIMOXIFENE (10 nM), 1.12 ± 0.12; with AFIMOXIFENE (50 nM), 1.08 ± 0.11; with AFIMOXIFENE (100 nM), 1.14 ± 0.024. The surviving fraction is 1.23 ± 0.03 with AFIMOXIFENE (500 nM); 1.03 ± 0.13 with AFIMOXIFENE (1000 nM); 1.04 ± 0.092 in assay [1] (0.5 nM); 1.03 ± 0.085 in assay [1] (1 nM); 0.957 ± 0.1 in assay [1] (5 nM); 1.07 ± 0.062 in assay [1] (10 nM). Besides, the surviving fraction in assay [1] (50 nM) is 1.11 ± 0.035; in assay [1] (100 nM) it was 1.11 ± 0.087; in assay [1] (500 nM), 1.02 ± 0.056; in assay [1] (1000 nM), 1.14 ± 0.11.
Turning to CADOES1 SOFT TISSUE, the surviving fraction amounted to 1.04 ± 0.054 with AFIMOXIFENE (0.5 nM); 0.998 ± 0.092 in the assay with AFIMOXIFENE (1 nM); 0.842 ± 0.12 in the assay with AFIMOXIFENE (5 nM); 0.986 ± 0.066 in the assay with AFIMOXIFENE (10 nM); 1.07 ± 0.064 with AFIMOXIFENE (50 nM); 0.978 ± 0.067 with AFIMOXIFENE (100 nM). Further, the surviving fraction came out at 1.14 ± 0.042 with AFIMOXIFENE (500 nM); 0.967 ± 0.087 with AFIMOXIFENE (1000 nM); 0.951 ± 0.15 in assay [1] (0.5 nM); 0.965 ± 0.065 in assay [1] (1 nM); 0.974 ± 0.07 in assay [1] (5 nM); 0.981 ± 0.084 in assay [1] (10 nM). The surviving fraction in assay [1] (50 nM) came to 1.11 ± 0.055; in assay [1] (100 nM) it was 0.995 ± 0.1; in assay [1] (500 nM) it was 1.01 ± 0.096; in assay [1] (1000 nM) it was 1.02 ± 0.032.
